# Source: patent publication US8664228B2, “3,5-diamino-6-chloro-pyrazine-2-carboxylic acid derivatives and their use as epithelial sodium channel blockers for the treatment of airway diseases” (Novartis AG, priority 2008, dated 2014)
# Counter-ions that a name gives are not always drawn.
# Target: T1, epithelial sodium channel (ENaC) (Homo sapiens, UniProt P37088+P51168+P51170)
# T1 construct: host or cells: primary human bronchial epithelial cells (HBECs), air-liquid interface culture
# T1 sequence (P37088 1-669): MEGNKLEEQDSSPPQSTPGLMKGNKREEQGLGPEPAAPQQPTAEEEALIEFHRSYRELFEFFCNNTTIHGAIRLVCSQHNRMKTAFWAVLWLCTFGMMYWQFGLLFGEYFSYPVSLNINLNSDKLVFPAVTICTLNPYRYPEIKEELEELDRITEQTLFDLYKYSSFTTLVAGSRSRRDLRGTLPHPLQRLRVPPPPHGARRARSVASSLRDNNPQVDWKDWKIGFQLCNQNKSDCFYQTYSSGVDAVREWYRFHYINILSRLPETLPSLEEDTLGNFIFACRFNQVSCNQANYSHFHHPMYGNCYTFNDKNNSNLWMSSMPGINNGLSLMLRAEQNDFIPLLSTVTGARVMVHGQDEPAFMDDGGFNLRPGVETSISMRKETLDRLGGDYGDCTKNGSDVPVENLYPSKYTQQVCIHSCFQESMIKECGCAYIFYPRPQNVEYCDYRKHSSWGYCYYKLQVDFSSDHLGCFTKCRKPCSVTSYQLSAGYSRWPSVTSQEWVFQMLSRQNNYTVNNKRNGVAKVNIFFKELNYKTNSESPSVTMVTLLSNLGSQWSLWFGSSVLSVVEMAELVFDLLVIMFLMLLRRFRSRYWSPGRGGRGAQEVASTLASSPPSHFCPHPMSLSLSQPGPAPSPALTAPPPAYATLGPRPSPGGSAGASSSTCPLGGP
# T1 sequence (P51168 1-640): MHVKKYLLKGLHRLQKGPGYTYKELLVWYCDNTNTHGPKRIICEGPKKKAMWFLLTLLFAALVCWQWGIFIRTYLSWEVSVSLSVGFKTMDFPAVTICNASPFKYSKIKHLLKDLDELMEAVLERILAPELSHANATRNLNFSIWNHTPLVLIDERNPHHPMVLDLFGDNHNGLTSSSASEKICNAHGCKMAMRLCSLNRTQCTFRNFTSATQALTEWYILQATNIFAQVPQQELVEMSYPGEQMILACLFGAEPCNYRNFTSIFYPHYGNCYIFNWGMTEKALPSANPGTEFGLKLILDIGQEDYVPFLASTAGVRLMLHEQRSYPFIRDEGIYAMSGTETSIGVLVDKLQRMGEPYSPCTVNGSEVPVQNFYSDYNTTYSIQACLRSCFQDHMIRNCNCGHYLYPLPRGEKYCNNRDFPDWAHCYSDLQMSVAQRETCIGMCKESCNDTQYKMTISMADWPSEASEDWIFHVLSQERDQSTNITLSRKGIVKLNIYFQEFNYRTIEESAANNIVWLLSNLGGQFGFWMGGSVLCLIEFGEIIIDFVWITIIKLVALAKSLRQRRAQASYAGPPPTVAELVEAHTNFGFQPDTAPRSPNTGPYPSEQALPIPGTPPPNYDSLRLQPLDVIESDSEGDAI
# T1 sequence (P51170 1-649): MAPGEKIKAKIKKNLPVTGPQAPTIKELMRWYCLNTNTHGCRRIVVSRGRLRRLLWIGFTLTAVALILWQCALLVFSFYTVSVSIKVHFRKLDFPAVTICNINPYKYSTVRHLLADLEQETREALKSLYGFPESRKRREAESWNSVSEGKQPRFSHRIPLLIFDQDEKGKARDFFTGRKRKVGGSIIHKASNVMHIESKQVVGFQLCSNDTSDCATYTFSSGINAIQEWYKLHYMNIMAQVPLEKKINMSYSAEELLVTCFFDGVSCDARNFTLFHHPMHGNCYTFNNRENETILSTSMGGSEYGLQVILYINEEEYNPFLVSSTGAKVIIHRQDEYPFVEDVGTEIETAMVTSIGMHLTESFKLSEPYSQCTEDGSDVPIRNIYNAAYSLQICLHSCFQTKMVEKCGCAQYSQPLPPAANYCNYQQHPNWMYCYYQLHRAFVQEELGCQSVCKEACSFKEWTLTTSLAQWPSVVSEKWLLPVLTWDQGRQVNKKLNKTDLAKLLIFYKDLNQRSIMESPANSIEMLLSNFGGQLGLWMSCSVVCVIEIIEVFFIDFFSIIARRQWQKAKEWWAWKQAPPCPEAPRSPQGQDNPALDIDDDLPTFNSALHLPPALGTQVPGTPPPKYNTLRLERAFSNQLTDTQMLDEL
# Assay: Short circuit current (ISC) measurements in human bronchial epithelial cells, inhibition of amiloride-sensitive ISC
# Type: cell-based
# Details: Human Bronchial Epithelial cells (HBECs) at air-liquid interface, Ussing chamber, apical addition
# Protocol: Human Bronchial Epithelial cells (HBECs) (Cambrex) were cultured under air-liquid interface conditions to provide a well differentiated mucociliary phenotype.
# HBECs were cultured using a modification of the method described by Gray and colleagues (Gray et al., 1996). Cells were seeded in plastic T-162 flasks and were grown in bronchial epithelial cell growth medium (BEGM; Cambrex) supplemented with bovine pituitary extract (52 μg/mL), hydrocortisone (0.5 μg/mL), human recombinant epidermal growth factor (0.5 ng/mL), epinephrine (0.5 μg/mL), transferrin (10 μg/mL), insulin (5 μg/mL), retinoic acid (0.1 μg/mL), triiodothyronine ([…]), gentamycin (50 μg/mL) and amphotericin B (50 ng/mL). Medium was changed every 48 hours until cells were 90% confluent. Cells were then passaged and seeded (8.25×10^5 cells/insert) on polycarbonate Snapwell inserts (Costar) in differentiation media containing 50% DMEM in BEGM with the same supplements as above but without triiodothyronine and a final retinoic acid concentration of 50 nM (all-trans retinoic acid). Cells were maintained submerged for the first 7 days in culture, after which time they were exposed to an apical air interface for the remainder of the culture period. At this time, media was changed to DMEM:F12 media containing 2% v/v Ultroser G for the remainder of culture. Amphotericin B was removed from all media 3 feeds prior to use in the Ussing Chambers. Cells were used between days 7 and 21 after establishment of the apical-air interface. At all stages of culture, cells were maintained at 37° C. in 5% CO2 in an air incubator.
# Snapwell inserts were mounted in Vertical Diffusion Chambers (Costar) and were bathed with continuously gassed Ringer solution (5% CO2 in O2; pH 7.4) maintained at 37° C. containing (in mM): 120 NaCl, 25 NaHCO3, 3.3 KH2PO4, 0.8 K2HPO4, 1.2 CaCl2, 1.2 MgCl2, and 10 glucose. The solution osmolarity was between 280 and 300 mOsmol/kg H2O for all physiological salt solutions used. Cells were voltage clamped to 0 mV (model EVC4000; WPI). RT was measured by applying a 1- or 2-mV pulse at 30-s intervals and calculating RT by Ohm's law. Data were recorded using a PowerLab workstation (ADInstruments).
# Test compounds were prepared as a 10 mM stock solution in DMSO (95%). Serial 3-fold dilutions were freshly prepared in an appropriate vehicle (distilled H2O or Ringers solution). The initial concentration was added to the apical chamber as a 1000× concentrate in 5 μL, resulting in a final 1× concentration the 5 mL volume of the Ussing chamber. Subsequent additions of compound were added in a 3.3 μL volume of the 1000× serially diluted stock solution. At the completion of the concentration-response experiment, amiloride (10 μM) was added into the apical chamber to enable the total amiloride-sensitive current to be measured. An amiloride control IC50 was established at the start of each experiment.
# Results are expressed as the mean % inhibition of the amiloride-sensitive ISC. Concentration-response curves were plotted and IC50 values generated using GraphPad Prism 3.02. Cell inserts were typically run in duplicate and the IC50 calculated on the mean % inhibition data.
row,Structure (SMILES),IC50 [nM]
1,"CCC[C@H](N)CNC(=O)c1nc(Cl)c(N)nc1N [Example 4, 3,5-Diamino-6-chloro-pyrazine-2-carboxylic acid ((S)-2-amino-pentyl)-amide hydrochloride]",290
2,"Nc1nc(N)c(C(=O)NC[C@@H]2CCCN2)nc1Cl [Example 9, 3,5-Diamino-6-chloro-pyrazine-2-carboxylic acid ((S)-1-pyrrolidin-2-ylmethyl)-amide hydrochloride]",2740
3,"Nc1nc(N)c(C(=O)NCC2(N)CCCC2)nc1Cl [Example 11, 3,5-Diamino-6-chloro-pyrazine-2-carboxylic acid (1-amino-cyclopentylmethyl)-amide hydrochloride]",5900
4,"Nc1nc(N)c(C(=O)NC[C@@H](N)CCCCNC(=O)CCc2ccc(OCc3ccccc3)cc2)nc1Cl [Example 21, 3,5-Diamino-6-chloro-pyrazine-2-carboxylic acid {(S)-2-amino-6-[3-(4-benzyloxy-phenyl)-propionylamino]-hexyl}-amide hydrochloride]",64
5,"CCC[C@@H](CNC(=O)c1nc(Cl)c(N)nc1N)NCCCc1ccc(OC)cc1 [Example 26, 3,5-Diamino-6-chloro-pyrazine-2-carboxylic acid {(S)-2-[3-(4-methoxy-phenyl)-propylamino]-pentyl}-amide hydrochloride]",60
6,"N=C(N)N[C@@H](CCCCNC(=O)Cc1ccc(OCc2ccccc2)cc1)CNC(=O)c1nc(Cl)c(N)nc1N [Example 27, 3,5-Diamino-6-chloro-pyrazine-2-carboxylic acid {(S)-6-[2-(4-benzyloxy-phenyl)-acetylamino]-2-guanidino-hexyl}-amide trifluoroacetate]",200

# These reach a lower IC50. Values come first.
row,IC50 [nM],Structure (SMILES)
1,49,"CCC[C@@H](CNC(=O)c1nc(Cl)c(N)nc1N)NC(=N)NCCCc1ccc(OC)cc1 [Example 31, 3,5-Diamino-6-chloro-pyrazine-2-carboxylic acid ((S)-2-{N′-[3-(4-methoxy-phenyl)-propyl]-guanidino}-pentyl)-amide]"
2,45,"CCC[C@H](CNC(=O)c1nc(Cl)c(N)nc1N)NC(=N)N [Example 24, 3,5-Diamino-6-chloro-pyrazine-2-carboxylic acid ((R)-2-guanidino-pentyl)-amide trifluoroacetate]"
3,32,"Nc1nc(N)c(C(=O)NC[C@@H](N)CCCCNC(=O)Cc2ccc(OCc3ccccc3)cc2)nc1Cl [Example 12, 3,5-Diamino-6-chloro-pyrazine-2-carboxylic acid {(S)-2-amino-6-[2-(4-benzyloxy-phenyl)-acetylamino]-hexyl}-amide trifluororoacetate]"
4,6,"CCC[C@@H](CNC(=O)c1nc(Cl)c(N)nc1N)NC(=N)NCc1ccc(OC)cc1 [Example 32, 3,5-Diamino-6-chloro-pyrazine-2-carboxylic acid {(S)-2-[N′-(4-methoxy-benzyl)-guanidino]-pentyl}-amide]"
5,5,"CCC[C@H](CNC(=O)c1nc(Cl)c(N)nc1N)N(CCCc1ccc(OC)cc1)C(=N)N [Example 29, 3,5-Diamino-6-chloro-pyrazine-2-carboxylic acid ((R)-2-{N-[3-(4-methoxy-phenyl)-propyl]-guanidino}-pentyl)-amide trifluoroacetate]"
